From patent publication US20030004175A1, “1,3-oxathiolane nucleoside analogues” (BioChem Pharma Inc., priority 1990, published 2003)
Converted amounts (≈) assume the structure as drawn.

Experiments:
C8166 cells = test: Cytotoxicity, viable cell count by trypan blue exclusion, C8166 cells; type: cell-based, human; conditions: 5 days at 37° C.
Procedure: (§1) The cytotoxicites of the compounds of Example 2, the racemic compound (BCH-189; […] H9, JM, CEM, C8166 and U937. […] After incubation at 37° C. for 5 days, the viable cell count was determined by removing a sample of cell suspension and counting trypan blue excluding cells in a haemocytometer.

JM cells = test: Cytotoxicity, viable cell count by trypan blue exclusion, JM cells; type: cell-based; conditions: 5 days at 37° C.
Procedure: as §1

U937 cells = test: Cytotoxicity, viable cell count by trypan blue exclusion, U937 cells; type: cell-based; conditions: 5 days at 37° C.
Procedure: as §1

H9 cells = test: Cytotoxicity, viable cell count by trypan blue exclusion, H9 cells; type: cell-based; conditions: 5 days at 37° C.
Procedure: as §1

CEM cells = test: Cytotoxicity, viable cell count by trypan blue exclusion, CEM cells; type: cell-based, human; conditions: 5 days at 37° C.
Procedure: as §1

HIV-1 strain U455 = test: Antiviral activity by inhibition of syncytium formation, CEM cells infected with HIV-1 U455; type: cell-based; conditions: Human immunodeficiency virus 1, CCRF-CEM, read-out: 50% Antiviral Activity
Procedure: (§2) Antiviral activity of the compounds of Example 2 were determined against three strains of HIV-1 and one strain of HIV-2 in the following cell lines.
(§3) CEM cells, a human T-lymphoblastoid cell line, infected with HIV-1 strains RF and U455, or HIV-2 strain ROD.
(§4) Antiviral activities in C8166, JM, and CEM cells were determined by inhibition of syncytium formation (Tochikura et al Virology, 164, 542-546) and in MT-4 cells by inhibition of formazan conversion (Baba et al; (1987) Biochem Biophys Res Commun., 142, 128-134; Mossman (1983) J. Immun Meth; 65, 55-57). Antiviral activities were also determined by analysing the amount of HIV p24 antigen synthesised in the presence and absence of enantiomers.

HIV-1 strain RF [1] = test: Antiviral activity by inhibition of formazan conversion, MT-4 cells infected with HIV-1 RF; type: cell-based; conditions: Human immunodeficiency virus 1, MT4, Formazan assay, read-out: 50% Antiviral Activity
Procedure: as §2
(§5) MT-4 cells, a human T-cell leukaemia cell line, infected with HIV-1 strain RF.
as §4

HIV-1 strain GB8 [2] = test: Inhibition of HIV p24 antigen synthesis, JM cells, strain GB8; type: cell-based; conditions: Human immunodeficiency virus 1, read-out: 50% Inhibition HIV p24 Synthesis
Procedure: as §2
(§6) JM cells, a semi-mature T-cell line derived from a patient with lymphoblastic leukaemia, infected with HIV-1 strain GB8.
as §4

HIV-1 strain RF [3] = test: Antiviral activity by inhibition of syncytium formation, CEM cells infected with HIV-1 RF; type: cell-based; conditions: Human immunodeficiency virus 1, CCRF-CEM, read-out: 50% Antiviral Activity
Procedure: as §2, §3, §4

HIV-1 strain RF [4] = test: Inhibition of HIV p24 antigen synthesis, C8166 cells, strain RF; type: cell-based; conditions: Human immunodeficiency virus 1, read-out: 50% Inhibition HIV p24 Synthesis
Procedure: as §2
(§7) C8166 cells, a human T-lymphoblastoid cell line, infected with HIV-1 strain RF.
as §4

HIV-1 strain RF [5] = test: Inhibition of HIV p24 antigen synthesis, MT-4 cells, strain RF; type: cell-based; conditions: Human immunodeficiency virus 1, MT4, read-out: 50% Inhibition HIV p24 Synthesis
Procedure: as §2, §5, §4

HIV-1 strain GB8 [6] = test: Antiviral activity by inhibition of syncytium formation, JM cells infected with HIV-1 GB8; type: cell-based; conditions: Human immunodeficiency virus 1, read-out: 50% Antiviral Activity
Procedure: as §2, §6, §4

HIV-2 strain ROD = test: Antiviral activity by inhibition of syncytium formation, CEM cells infected with HIV-2 ROD; type: cell-based; conditions: Human immunodeficiency virus 2, CCRF-CEM, read-out: 50% Antiviral Activity
Procedure: as §2, §3, §4

HIV-1 strain RF [7] = test: Antiviral activity by inhibition of syncytium formation, C8166 cells infected with HIV-1 RF; type: cell-based; conditions: Human immunodeficiency virus 1, read-out: 50% Antiviral Activity
Procedure: as §2, §7, §4

CD4 cell lines = test: Cytotoxicity (summary statement); type: cell-based
Procedure: Compounds for test were serially diluted from 100 μg/ml to 0.3 μg/ml (final concentrations) in 96 well microtitre plates. 3.6×10^4 cells were inoculated into each well of the plates including drug-free controls. After incubation at 37° C. for 5 days, the viable cell count was determined by removing a sample of cell suspension and counting trypan blue excluding cells in a haemocytometer.

## Nc1ccn([C@@H]2CS[C@H](CO)O2)c(=O)n1 (racemic) [BCH-189, (±)-(cis)-4-Amino-1-(2-hydroxymethyl-1,3-oxathiolan-5-yl)-(1H)-pyrimidin-2-one]
C8166 cells
  50% Cytoxicity: 90 µg/mL
JM cells
  50% Cytoxicity: 3.5 µg/mL
U937 cells
  50% Cytoxicity: 15 µg/mL
H9 cells
  50% Cytoxicity: 8 µg/mL
CEM cells
  50% Cytoxicity: 3 µg/mL

## Nc1ccn([C@H]2CS[C@@H](CO)O2)c(=O)n1 [(+)-enantiomer, (2S,cis)-4-amino-1-(2-hydroxymethyl-1,3-oxathiolan-5-yl)-(1H)-pyrimidin-2-one]
HIV-1 strain U455
  IC50: 0.006 µg/mL (≈ 0.0262 µM)
HIV-1 strain RF [1]
  IC50: 0.28 µg/mL (≈ 1.22 µM)
HIV-1 strain GB8 [2]
  IC50: 0.033 µg/mL (≈ 0.144 µM)
HIV-1 strain RF [3]
  IC50: 0.07 µg/mL (≈ 0.305 µM)
C8166 cells
  50% Cytoxicity: 35 µg/mL
JM cells
  50% Cytoxicity: 1.5 µg/mL
HIV-1 strain RF [4]
  IC50: 0.021 µg/mL (≈ 0.0916 µM)
HIV-1 strain RF [5]
  IC50: 0.0008 µg/mL (≈ 0.00349 µM)
U937 cells
  50% Cytoxicity: 4 µg/mL
HIV-1 strain GB8 [6]
  IC50: 0.03 µg/mL (≈ 0.131 µM)
HIV-2 strain ROD
  IC50: 0.045 µg/mL (≈ 0.196 µM)
HIV-1 strain RF [7]
  IC50: 0.05 µg/mL (≈ 0.218 µM)
H9 cells
  50% Cytoxicity: 2 µg/mL
CEM cells
  50% Cytoxicity: 1 µg/mL

## Nc1ccn([C@@H]2CS[C@H](CO)O2)c(=O)n1 [(−)-enantiomer, (−)-cis-4-Amino-1-(2-hydroxymethyl-1,3-oxathiolan-5-yl)-(1H)-pyrimidin-2-one]
HIV-1 strain U455
  IC50: 0.008 µg/mL (≈ 0.0349 µM)
HIV-1 strain RF [1]
  IC50: 0.2 µg/mL (≈ 0.872 µM)
HIV-1 strain GB8 [2]
  IC50: 0.016 µg/mL (≈ 0.0698 µM)
HIV-1 strain RF [3]
  IC50: 0.04 µg/mL (≈ 0.174 µM)
C8166 cells
  50% Cytoxicity: >100 µg/mL
JM cells
  50% Cytoxicity: 30 µg/mL
HIV-1 strain RF [4]
  IC50: 0.016 µg/mL (≈ 0.0698 µM)
CD4 cell lines
  cytotoxicity compared with the other enantiomer: considerably lower cytotoxicity
HIV-1 strain RF [5]
  IC50: 0.0004 µg/mL (≈ 0.00174 µM)
U937 cells
  50% Cytoxicity: >100 µg/mL
HIV-1 strain GB8 [6]
  IC50: 0.05 µg/mL (≈ 0.218 µM)
HIV-2 strain ROD
  IC50: 0.055 µg/mL (≈ 0.24 µM)
HIV-1 strain RF [7]
  IC50: 0.01 µg/mL (≈ 0.0436 µM)
H9 cells
  50% Cytoxicity: >100 µg/mL
CEM cells
  50% Cytoxicity: >100 µg/mL
